Biological target: IDO1 (Homo sapiens, UniProt P14902)
Experiment: IDO1 Cellular Assay in HeLa Cells Stimulated with IFNγ
Type: cell-based
Design: endogenous in cells; host or cells: HeLa cells stimulated with IFNγ
Settings: HeLa cells stimulated with IFNγ 100 ng/mL, 300 uM L-tryptophan, about 48 hours, fluorescence readout; read-out: IDO1 HELA Cell Assay, IC50
Protocol: Biological Assays IDO1 Cellular Assay in HeLa Cells Stimulated with IFNγ HeLa cells were cultured in complete HeLa culture medium (90% EMEM, 10% heat-inactivated fetal bovine serum) and expanded to about 1×10^9 cells. The cells were then collected and frozen down at 1×10^7 cells/vial in 1 mL frozen medium (90% complete HeLa culture medium, 10% DMSO). Compounds to be tested were serially diluted in ten 3-fold steps in DMSO starting from 10 mM DMSO stocks in Echo low volume plate(s). Compound dilutions or DMSO alone were then dispensed from the dilution plate(s) into Greiner black 384-well assay plate(s) (catalog #781086, 50 nL/well) using an Echo 550 acoustic liquid handler (Labcyte). Frozen HeLa cells were thawed and transferred into HeLa assay medium (99% complete HeLa culture medium, 1% Pen/Strep) with 20 mL medium/vial of cells. The cells were spun down at 250 g in a table top centrifuge for 5 min and suspended in same volume of HeLa assay medium. The cells were then counted and adjusted to a density of 2×10^5 cells/mL in HeLa assay medium. Sterile L-tryptophan were added to the cells with final concentration of 300 uM L-tryptophan. A small aliquot (2 mL/plate) of HeLa cells were set aside and were not treated with IFNγ, to serve as the Max-E control. The rest of HeLa cells were added with sterile IFNγ (Cat #285-IF, R & D systems) with a final concentration of 100 ng/mL. HeLa cells with and without IFNγ were dispensed to the respective wells of 384-well assay plates containing the compounds. The plates were incubated for about 48 hours at a 37° C., 5% CO2 incubator. Afterwards, 12 μL of 0.5 M methyl isonipecotate in dimethyl sulfoxide were added into each well and the plates were sealed and incubated at 37° C. without CO2 overnight. The plates were centrifuged for 1 min at 200×g. The resulting fluorescence was measured in a Spectramax plate reader (Molecular Devices) with a 400 nm excitation filter and a 510 nm emission filter. The fluorescence intensity of each well was corrected for the background observed in wells with non-IFNγ-treated cells and was expressed as a fraction of the intensity observed in wells of IFNγ-treated cells and DMSO only. Potencies were calculated by […] least squares fit to the four parameter logistic IC50 equation.

IDO1, sequence (P14902 whole entry): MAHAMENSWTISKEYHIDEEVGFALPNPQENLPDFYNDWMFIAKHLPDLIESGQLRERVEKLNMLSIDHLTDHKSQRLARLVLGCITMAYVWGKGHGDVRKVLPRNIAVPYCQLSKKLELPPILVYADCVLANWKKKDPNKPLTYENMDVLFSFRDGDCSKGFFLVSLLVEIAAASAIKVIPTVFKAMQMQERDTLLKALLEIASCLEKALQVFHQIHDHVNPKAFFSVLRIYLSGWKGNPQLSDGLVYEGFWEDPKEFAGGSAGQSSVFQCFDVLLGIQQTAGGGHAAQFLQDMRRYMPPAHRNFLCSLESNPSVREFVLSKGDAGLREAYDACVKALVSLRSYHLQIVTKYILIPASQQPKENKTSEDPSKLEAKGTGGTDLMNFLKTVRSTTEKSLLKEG

Compound | IC50
Cc1nccc(N2c3ccc(C4(NC(=O)c5ccc(F)cc5)CC4)cc3C3CC32)n1 (single isomer, unassigned) [Example 9, 4-fluoro-N-(1-(2-(2-methylpyrimidin-4-yl)-1,1a,2,6b-tetrahydrocyclopropa[b]indol-5-yl)cyclopropyl)benzamide] | 0.00821 µM
Cc1nccc(N2c3ccc(C4(NC(=O)c5ccc(F)cc5)CC4)nc3C3CC2C3C)n1 (stereo not drawn) [Example 48, 4-fluoro-N-(1-(3-methyl-1-(2-methylpyrimidin-4-yl)-1,2,3,4-tetrahydro-2,4-methano-1,5-naphthyridin-6-yl)cyclopropyl)benzamide] | 0.0763 µM
Cc1nccc(N2C[C@@H]3C[C@@H]3c3nc(C4(NC(=O)c5ccc(F)cc5)CC4)ccc32)n1 (stereo in doubt) [Example 12, 4-fluoro-N-(1-(5-(2-methylpyrimidin-4-yl)-6,6a,7,7a-tetrahydro-5H-cyclopropa[c][1,5]naphthyridin-2-yl)cyclopropyl)benzamide] | 0.00191 µM
Cc1nccc(N2C[C@H]3C[C@H]3c3nc(C4(NC(=O)c5ccc(F)cc5)CC4)ccc32)n1 (stereo in doubt) [Example 13, 4-fluoro-N-(1-(5-(2-methylpyrimidin-4-yl)-6,6a,7,7a-tetrahydro-5H-cyclopropa[c][1,5]naphthyridin-2-yl)cyclopropyl)benzamide] | 0.00107 µM
COC(=O)c1nccc(N2CC3CC3c3nc(C4(NC(=O)c5ccc(F)cc5)CC4)ccc32)n1 (stereo not drawn) [Example 17, methyl 4-(2-(1-(4-fluorobenzamido)cyclopropyl)-6,6a,7,7a-tetrahydro-5H-cyclopropa[c][1,5]naphthyridin-5-yl)pyrimidine-2-carboxylate] | 0.00902 µM
CC(C)(C)OC(=O)N1C[C@H]2C[C@H]2c2nc(C3(NC(=O)c4ccc(F)cc4)CC3)ccc21 [Example 53, tert-butyl (6aS,7aR)-2-(1-(4-fluorobenzamido)cyclopropyl)-6,6a,7,7a-tetrahydro-5H-cyclo-propa[c][1,5]naphthyridine-5-carboxylate] | 0.00462 µM
CC(C)(C)OC(=O)N1CC2CC2c2nc(C(C)(C)NC(=O)c3ccc(F)cc3)ccc21 (stereo not drawn) [Example 55, tert-butyl 2-(2-(4-fluorobenz-amido)propan-2-yl)-6,6a,7,7a-tetrahydro-5H-cyclopropa[c]-[1,5]naphthyridine-5-carboxylate] | 0.0166 µM
Cc1nccc(N2C[C@H]3C[C@H]3c3nc([C@]4(NC(=O)c5ccc(F)cc5)C[C@@H]4C)ccc32)n1 [Example 46, 4-fluoro-N-((1S,2S)-2-methyl-1-((6aS,7aR)-5-(2-methyl-pyrimidin-4-yl)-6,6a,7,7a-tetra-hydro-5H-cyclopropa[c][1,5]-naphthyridin-2-yl)cyclopropyl)-benzamide] | 0.0244 µM
C[C@H](NC(=O)c1ccc(F)cc1)c1ccc2c(n1)[C@H]1C[C@H]1CN2C(=O)OC1CC1 [Example 25, cyclopropyl (6aR,7aS)-2-((S)-1-(4-fluorobenzamido)-ethyl)-6,6a,7,7a-tetrahydro-5H-cyclopropa[c][1,5]-naphthyridine-5-carboxylate] | 0.0154 µM
O=C(NC1(c2ccc3c(n2)C2CC(C2)N3C(=O)OC2CC2)CC1)c1ccc(F)cc1 [Example 50, cyclopropyl 6-(1-(4-fluorobenzamido)cyclopropyl)-3,4-dihydro-2,4-methano-1,5-naphthyridine-1(2H)-carboxylate] | 0.00576 µM
Cc1nccc(N2CC3CC3c3nc(C(C)(C)NC(=O)c4ccc(F)cc4)ccc32)n1 (racemic) [Example 29, 4-fluoro-N-(2-(5-(2-methylpyrimidin-4-yl)-6,6a,7,7a-tetrahydro-5H-cyclopropa[c][1,5]naphthyridin-2-yl)propan-2-yl)benzamide] | 0.09 µM
O=C(NC1(c2ccc3c(n2)[C@@H]2C[C@@H]2CN3C(=O)OC2CCOCC2)CC1)c1ccc(F)cc1 [Example 23, tetrahydro-2H-pyran-4-yl (6aS,7aR)-2-(1-(4-fluoro-benzamido)cyclopropyl)-6,6a,7,7a-tetrahydro-5H-cyclopropa[c][1,5]-naphthyridine-5-carboxylate] | 0.017 µM

— patent US12065438B2, “Substituted tricyclic compounds as indoleamine 2,3-dioxygenase inhibitors” (Merck Sharp & Dohme LLC, priority 2019, dated 2024)
